Data reported in US10294202B2, “Pyrrolidinones as herbicides” (FMC Corporation, priority 2013, dated 2019).

Assays:
Assay in all cases: Test D pre-/postemergence herbicide test
foxtail, green = assay type: in vivo, Setaria viridis; conditions: for Plant response rating: Foxtail, Green, scale 0 to 100; for Plant response rating, Foxtail, Green: scale 0 to 100 (0 no effect, 100 complete control)
Description: (§1) Seeds of plant species selected from bluegrass (annual bluegrass, Poa annua), blackgrass (Alopecurus myosuroides), canarygrass (littleseed canarygrass, Phalaris minor), chickweed (common chickweed, Stellaria media), galium (catchweed bedstraw, Galium aparine), bromegrass, downy (downy bromegrass, Bromus tectorum), field poppy (Papaver rhoeas), field violet (Viola arvensis), foxtail, green (green foxtail, Setaria viridis), deadnettle (henbit deadnettle, Lamium amplexicaule), ryegrass, Italian (Italian ryegrass, Lolium multiflorum), kochia (Kochia scoparia), lambsquarters (Chenopodium album), oilseed rape (Brassica napus), pigweed (Amaranthus retroflexus), chamomile (scentless chamomile, Matricaria inodora), Russian thistle (Salsola kali), speedwell (bird's-eye speedwell, Veronica persica), barley, spring (spring barley, Hordeum vulgare), wheat, spring (spring wheat, Triticum aestivum), buckwheat, wild (wild buckwheat, Polygonum convolvulus), mustard, wild (wild mustard, Sinapis arvensis), oat, wild (wild oat, Avena fatua), radish, wild (wild radish, Raphanus raphanistrum), […]), barley, winter (winter barley, Hordeum vulgare), and wheat, winter (winter wheat, Triticum aestivum) were planted into a silt loam soil and treated preemergence with test chemicals formulated in a non-phytotoxic solvent mixture which included a surfactant. At the same time, these species were planted in pots containing Redi-Earth® planting medium (Scotts Company, 14111 Scottslawn Road, Marysville, Ohio 43041) comprising spaghnum peat moss, vermiculite, wetting agent and starter nutrients and treated with postemergence applications of the test chemicals formulated in the same manner. Plants ranged in height from 2 to 18 cm (1- to 4-leaf stage). Treated plants and controls were maintained in a controlled growth environment for 7 to 21 days after which time all species were compared to controls and visually evaluated. Plant response ratings, summarized in Table D, are based on a scale of 0 to 100 where 0 is no effect and 100 is complete control. A dash (-) response means no test result.

barley, winter = assay type: in vivo, Hordeum vulgare; conditions: for Plant response rating: Barley, Winter, scale 0 to 100; for Plant response rating, Barley, Winter: scale 0 to 100 (0 no effect, 100 complete control)
How it was run: (§2)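 Dual-timing greenhouse test: preemergence application to seeds in silt loam soil, postemergence application to 1- to 4-leaf plants in peat-based medium. Chemicals were formulated with surfactant in non-phytotoxic solvent. Control was rated visually 0–100 relative to untreated plants after 7 to 21 days.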

barley, spring = assay type: in vivo, Hordeum vulgare; conditions: for Plant response rating: Barley, Spring, scale 0 to 100; for Plant response rating, Barley, Spring: scale 0 to 100 (0 no effect, 100 complete control)
How it was run: as §2

mustard, wild = assay type: in vivo, Sinapis arvensis; conditions: for Plant response rating: Mustard, Wild, scale 0 to 100; for Plant response rating, Mustard, Wild: scale 0 to 100 (0 no effect, 100 complete control)
Description: as §1

O=C1NCC(c2ccc(C(F)(F)F)cc2)C1C(=O)Nc1ccccc1F (centres unmarked) [Compound 231]
Plant response rating (foxtail, green; Postemergence, 31 g ai/ha): 10
Plant response rating (foxtail, green; Postemergence, 62 g ai/ha): 65
Plant response rating (foxtail, green; Postemergence, 125 g ai/ha): 70
Plant response rating (foxtail, green; Postemergence, 250 g ai/ha): 70
Plant response rating, Foxtail, Green (foxtail, green; Preemergence, 62 g ai/ha): 80
Plant response rating, Foxtail, Green (foxtail, green; Preemergence, 125 g ai/ha): 95
Plant response rating, Foxtail, Green (foxtail, green; Preemergence, 31 g ai/ha): 45
Plant response rating (foxtail, green; Preemergence, 250 g ai/ha): 98
Plant response rating (barley, winter; Postemergence, 31 g ai/ha): 0
Plant response rating (barley, winter; Postemergence, 62 g ai/ha): 0
Plant response rating (barley, winter; Postemergence, 125 g ai/ha): 0
Plant response rating (barley, winter; Postemergence, 250 g ai/ha): 0
Plant response rating, Barley, Winter (barley, winter; Preemergence, 62 g ai/ha): 0
Plant response rating, Barley, Winter (barley, winter; Preemergence, 125 g ai/ha): 0
Plant response rating, Barley, Winter (barley, winter; Preemergence, 31 g ai/ha): 0
Plant response rating (barley, winter; Preemergence, 250 g ai/ha): 20
Plant response rating (barley, spring; Postemergence, 31 g ai/ha): 0
Plant response rating (barley, spring; Postemergence, 62 g ai/ha): 0
Plant response rating (barley, spring; Postemergence, 125 g ai/ha): 0
Plant response rating (barley, spring; Postemergence, 250 g ai/ha): 0
Plant response rating, Barley, Spring (barley, spring; Preemergence, 62 g ai/ha): 5
Plant response rating, Barley, Spring (barley, spring; Preemergence, 125 g ai/ha): 5
Plant response rating, Barley, Spring (barley, spring; Preemergence, 31 g ai/ha): 0
Plant response rating (barley, spring; Preemergence, 250 g ai/ha): 35
Plant response rating (mustard, wild; Postemergence, 31 g ai/ha): 35
Plant response rating (mustard, wild; Postemergence, 62 g ai/ha): 65
Plant response rating (mustard, wild; Postemergence, 125 g ai/ha): 65
Plant response rating (mustard, wild; Postemergence, 250 g ai/ha): 75
Plant response rating, Mustard, Wild (mustard, wild; Preemergence, 62 g ai/ha): 10
Plant response rating, Mustard, Wild (mustard, wild; Preemergence, 125 g ai/ha): 0
Plant response rating, Mustard, Wild (mustard, wild; Preemergence, 31 g ai/ha): 0
Plant response rating (mustard, wild; Preemergence, 250 g ai/ha): 15
